Target: T1, human M1 receptor (Homo sapiens, UniProt P11229)
T1 sequence (P11229 1-460): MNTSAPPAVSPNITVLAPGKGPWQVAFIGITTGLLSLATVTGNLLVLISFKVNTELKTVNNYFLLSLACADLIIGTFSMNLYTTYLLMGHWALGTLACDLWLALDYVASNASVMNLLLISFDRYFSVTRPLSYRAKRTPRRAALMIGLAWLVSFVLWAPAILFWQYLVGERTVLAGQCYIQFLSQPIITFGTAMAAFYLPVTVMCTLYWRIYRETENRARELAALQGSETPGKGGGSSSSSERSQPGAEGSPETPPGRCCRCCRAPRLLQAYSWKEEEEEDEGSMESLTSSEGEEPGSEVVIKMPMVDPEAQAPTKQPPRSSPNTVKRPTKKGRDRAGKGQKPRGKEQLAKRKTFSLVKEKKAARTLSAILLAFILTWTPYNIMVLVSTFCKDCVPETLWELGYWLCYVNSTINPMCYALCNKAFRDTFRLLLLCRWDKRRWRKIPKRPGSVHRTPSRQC
Assay: In vitro functional assay of muscarinic acetylcholine receptor activity (aequorin calcium flux, reversal of EC80 acetylcholine response)
Format: cell-based
Settings: CHO-K1 cells stably expressing human M1 receptor with aequorin; acetylcholine at EC80; calcium flux (luminescence); read-out: M1 IC50
Outline: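 Antagonist mode: compound (final 0.1% DMSO) and coelenterazine-loaded M1/aequorin CHO-K1 cells incubated 30 min in the dark before EC80 acetylcholine addition. Calcium flash integrated as 40 s luminescence AUC; IC50 derived from dose-response curves.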

Q: With `COc1ccc(C2(NCCC(=O)N3CC4CCC(C3)N4c3ccc(C#N)cn3)CC2)cc1` [Example 17, 6-(3-(3-((1-(4-methoxyphenyl)cyclopropyl)amino)propanoyl)-3,8-diazabicyclo[3.2.1]octan-8-yl)nicotinonitrile] as the molecule, how does the IC50 read?
A: 100 to 1000 nM

Q: Which IC50 does the source give for `N#Cc1ccc(N2[C@@H]3CC[C@H]2CN(C(=O)CCNC2(c4ccccn4)CC2)C3)nc1` [Example 18, 6-(3-(3-((1-(pyridin-2-yl)cyclopropyl)amino)propanoyl)-3,8-diazabicyclo[3.2.1]octan-8-yl)nicotinonitrile] here?
A: 1000 to 10000 nM

Q: `N#Cc1ccc(N2[C@@H]3CC[C@H]2CN(C(=O)CCNC2(c4cccnc4)CC2)C3)nc1` [Example 19, 6-(3-(3-((1-(pyridin-3-yl)cyclopropyl)amino)propanoyl)-3,8-diazabicyclo[3.2.1]octan-8-yl)nicotinonitrile] was tested. Which IC50 did it give?
A: 100 to 1000 nM

Q: How did the IC50 turn out when `N#Cc1ccc(N2[C@@H]3CC[C@H]2CN(C(=O)CCNC2(c4ncccc4F)CC2)C3)nc1` [Example 20, 6-(3-(3-((1-(3-fluoropyridin-2-yl)cyclopropyl)amino)propanoyl)-3,8-diazabicyclo[3.2.1]octan-8-yl)nicotinonitrile] was run?
A: 1000 to 10000 nM

Q: For `COc1cc([C@@H](C)NCCC(=O)N2C[C@H]3CC[C@@H](C2)N3c2ccc(C#N)cn2)ccn1` [Example 21, 6-(3-(3-(((R)-1-(2-methoxypyridin-4-yl)ethyl)amino)propanoyl)-3,8-diazabicyclo[3.2.1]octan-8-yl)nicotinonitrile], which IC50 is on record?
A: 100 to 1000 nM

Q: With `COc1cc([C@H](C)NCCC(=O)N2C[C@H]3CC[C@@H](C2)N3c2ccc(C#N)cn2)ccn1` [Example 22, 6-(3-(3-(((S)-1-(2-methoxypyridin-4-yl)ethyl)amino)propanoyl)-3,8-diazabicyclo[3.2.1]octan-8-yl)nicotinonitrile] as the molecule, how does the IC50 read?
A: 1000 to 10000 nM

Q: With `N#Cc1ccc(N2C3CCC2CN(C(=O)CCN2CC(c4ccc(F)cc4)C2)C3)nc1` [Example 24] as the molecule, how does the IC50 read?
A: > 1000 nM

Q: For `CC(C)(NCCC(=O)N1C[C@H]2CC[C@@H](C1)N2c1ccc(C#N)cn1)c1cccc2ncccc12` [Example 25, 6-(3-(3-((2-(quinolin-5-yl)propan-2-yl)amino)propanoyl)-3,8-diazabicyclo[3.2.1]octan-8-yl)nicotinonitrile], which IC50 is on record?
A: < 10 nM

Q: How did the IC50 turn out when `N#Cc1ccc(N2[C@@H]3CC[C@H]2CN(C(=O)CCNC2(c4ccc(F)cc4F)CC2)C3)nc1` [Example 26, 6-(3-(3-((1-(2,4-difluorophenyl)cyclopropyl)amino)propanoyl)-3,8-diazabicyclo[3.2.1]octan-8-yl)nicotinonitrile] was run?
A: 10 to 100 nM

Q: Which IC50 does the source give for `N#Cc1ccc(N2[C@@H]3CC[C@H]2CN(C(=O)CCNC2(c4cccc5ncccc45)CC2)C3)nc1` [Example 27, 6-(3-(3-((1-(quinolin-5-yl)cyclopropyl)amino)propanoyl)-3,8-diazabicyclo[3.2.1]octan-8-yl)nicotinonitrile] here?
A: < 10 nM

Q: With `N#Cc1ccc(N2[C@@H]3CC[C@H]2CN(C(=O)CCNC2(c4ccc(F)nc4)CC2)C3)nc1` [Example 28, 6-(3-(3-((1-(6-fluoropyridin-3-yl)cyclopropyl)amino)propanoyl)-3,8-diazabicyclo[3.2.1]octan-8-yl)nicotinonitrile] as the molecule, how does the IC50 read?
A: < 10 nM

Q: With `N#Cc1ccc(N2[C@@H]3CC[C@H]2CN(C(=O)CCNC2(c4ccc(F)cn4)CC2)C3)nc1` [Example 29, 6-(3-(3-((1-(5-fluoropyridin-2-yl)cyclopropyl)amino)propanoyl)-3,8-diazabicyclo[3.2.1]octan-8-yl)nicotinonitrile] as the molecule, how does the IC50 read?
A: 1000 to 10000 nM

Q: With `N#Cc1ccc(N2[C@@H]3CC[C@H]2CN(C(=O)CCNC2(c4cncc(F)c4)CC2)C3)nc1` [Example 30, 6-(3-(3-((1-(5-fluoropyridin-3-yl)cyclopropyl)amino)propanoyl)-3,8-diazabicyclo[3.2.1]octan-8-yl)nicotinonitrile] as the molecule, how does the IC50 read?
A: 100 to 1000 nM

Q: Which IC50 does the source give for `N#Cc1ccc(N2[C@@H]3CC[C@H]2CN(C(=O)CCNC2(c4ncc(F)cc4F)CC2)C3)nc1` [Example 31, 6-(3-(3-((1-(3,5-difluoropyridin-2-yl)cyclopropyl)amino)propanoyl)-3,8-diazabicyclo[3.2.1]octan-8-yl)nicotinonitrile] here?
A: 100 to 1000 nM

Q: `N#Cc1ccc(N2[C@@H]3CC[C@H]2CN(C(=O)CCNC2(c4cccc(F)c4F)CC2)C3)nc1` [Example 32, 6-(3-(3-((1-(2,3-difluorophenyl)cyclopropyl)amino)propanoyl)-3,8-diazabicyclo[3.2.1]octan-8-yl)nicotinonitrile] was tested. Which IC50 did it give?
A: 10 to 100 nM

Q: Which IC50 does the source give for `N#Cc1ccc(N2[C@@H]3CC[C@H]2CN(C(=O)CCNC2(c4cc(F)cc(F)c4)CC2)C3)nc1` [Example 33, 6-(3-(3-((1-(3,5-difluorophenyl)cyclopropyl)amino)propanoyl)-3,8-diazabicyclo[3.2.1]octan-8-yl)nicotinonitrile] here?
A: 10 to 100 nM

Q: For `N#Cc1ccc(N2[C@@H]3CC[C@H]2CN(C(=O)CCNC2(c4ccc(Cl)c(F)c4)CC2)C3)nc1` [Example 34, 6-(3-(3-((1-(4-chloro-3-fluorophenyl)cyclopropyl)amino)propanoyl)-3,8-diazabicyclo[3.2.1]octan-8-yl)nicotinonitrile], which IC50 is on record?
A: < 10 nM

Q: Which IC50 does the source give for `N#Cc1ccc(N2[C@@H]3CC[C@H]2CN(C(=O)CCNC2(c4ccc(F)c(Cl)c4)CC2)C3)nc1` [Example 35, 6-(3-(3-((1-(3-chloro-4-fluorophenyl)cyclopropyl)amino)propanoyl)-3,8-diazabicyclo[3.2.1]octan-8-yl)nicotinonitrile] here?
A: 10 to 100 nM

Q: With `COc1cc(C2(NCCC(=O)N3CC4CCC(C3)N4c3ccc(C#N)cn3)CC2)ccn1` [Example 36, 6-(3-(3-((1-(2-methoxypyridin-4-yl)cyclopropyl)amino)propanoyl)-3,8-diazabicyclo[3.2.1]octan-8-yl)nicotinonitrile] as the molecule, how does the IC50 read?
A: 1000 to 10000 nM

Q: Which IC50 does the source give for `N#Cc1ccc(N2[C@@H]3CC[C@H]2CN(C(=O)CCNC2(c4ccc(F)c(F)c4)CCC2)C3)nc1` [Example 37, 6-(3-(3-((1-(3,4-difluorophenyl)cyclobutyl)amino)propanoyl)-3,8-diazabicyclo[3.2.1]octan-8-yl)nicotinonitrile] here?
A: < 10 nM

Q: How did the IC50 turn out when `N#Cc1ccc(N2[C@@H]3COC[C@H]2CN(C(=O)CCNC2(c4ccc(F)c(F)c4)CC2)C3)nc1` [Example 39, 6-(7-(3-((1-(3,4-difluorophenyl)cyclopropyl)amino)propanoyl)-3-oxa-7,9-diazabicyclo[3.3.1]nonan-9-yl)nicotinonitrile] was run?
A: 100 to 1000 nM

Q: How did the IC50 turn out when `N#Cc1ccc(N2[C@@H]3C[C@H]2CN(C(=O)CCNC2(c4ccc(F)c(F)c4)CC2)C3)nc1` [Example 40, 6-(3-(3-((1-(3,4-difluorophenyl)cyclopropyl)amino)propanoyl)-3,6-diazabicyclo[3.1.1]heptan-6-yl)nicotinonitrile] was run?
A: 1000 to 10000 nM

Q: `N#Cc1ccc(N2C[C@H]3CC[C@@H]2CN3C(=O)CCNC2(c3ccc(F)c(F)c3)CC2)nc1` [Example 41, 6-((1R,4R)-5-(3-((1-(3,4-difluorophenyl)cyclopropyl)amino)propanoyl)-2,5-diazabicyclo[2.2.2]octan-2-yl)nicotinonitrile] was tested. Which IC50 did it give?
A: 10 to 100 nM

Q: Which IC50 does the source give for `N#Cc1ccc(N2[C@@H]3CC[C@H]2CN(C(=O)CCNC2(c4ccc(F)c(F)c4)CC2)C3)nn1` [Example 42, 6-(3-(3-((1-(3,4-difluorophenyl)cyclopropyl)amino)propanoyl)-3,8-diazabicyclo[3.2.1]octan-8-yl)pyridazine-3-carbonitrile] here?
A: < 10 nM

Q: Which IC50 does the source give for `N#Cc1cc(N2[C@@H]3CC[C@H]2CN(C(=O)CCNC2(c4ccc(F)c(F)c4)CC2)C3)ccn1` [Example 43, 4-(3-(3-((1-(3,4-difluorophenyl)cyclopropyl)amino)propanoyl)-3,8-diazabicyclo[3.2.1]octan-8-yl)picolinonitrile] here?
A: 10 to 100 nM

Q: How did the IC50 turn out when `N#Cc1cnc(N2[C@@H]3CC[C@H]2CN(C(=O)CCNC2(c4ccc(F)c(F)c4)CC2)C3)nc1` [Example 44, 2-(3-(3-((1-(3,4-difluorophenyl)cyclopropyl)amino)propanoyl)-3,8-diazabicyclo[3.2.1]octan-8-yl)pyrimidine-5-carbonitrile] was run?
A: 100 to 1000 nM

Q: Which IC50 does the source give for `N#Cc1cnc(N2[C@@H]3CC[C@H]2CN(C(=O)CCNC2(c4ccc(F)c(F)c4)CC2)C3)cn1` [Example 45, 5-(3-(3-((1-(3,4-difluorophenyl)cyclopropyl)amino)propanoyl)-3,8-diazabicyclo[3.2.1]octan-8-yl)pyrazine-2-carbonitrile] here?
A: 10 to 100 nM

Q: With `N#Cc1ccc(N2[C@@H]3CC[C@H]2CN(C(=O)CCNC2(c4ccc(F)c(F)c4)CC2)C3)cn1` [Example 46, 5-(3-(3-((1-(3,4-difluorophenyl)cyclopropyl)amino)propanoyl)-3,8-diazabicyclo[3.2.1]octan-8-yl)picolinonitrile] as the molecule, how does the IC50 read?
A: < 10 nM

Q: `Cc1ccc(N2[C@@H]3CC[C@H]2CN(C(=O)CCNC2(c4ccc(F)c(F)c4)CC2)C3)nn1` [Example 47, 3-((1-(3,4-difluorophenyl)cyclopropyl)amino)-1-(8-(6-methylpyridazin-3-yl)-3,8-diazabicyclo[3.2.1]octan-3-yl)propan-1-one] was tested. Which IC50 did it give?
A: 10 to 100 nM

Q: Which IC50 does the source give for `N#Cc1ccc(N2C3CCC2CN(C(=O)CNC2(c4ccc(F)c(F)c4)CC2)C3)nc1` [Example 60, 6-(3-((1-(3,4-difluorophenyl)cyclopropyl)glycyl)-3,8-diazabicyclo[3.2.1]octan-8-yl)nicotinonitrile] here?
A: 10 to 100 nM

Q: `N#Cc1ccc(N2C3CCC2CN(C(=O)CNC2(c4ccccc4F)CC2)C3)nc1` [Example 61, 6-(3-((1-(2-fluorophenyl)cyclopropyl)glycyl)-3,8-diazabicyclo[3.2.1]octan-8-yl)nicotinonitrile] was tested. Which IC50 did it give?
A: 100 to 1000 nM
